For test [1], the target named is GABA-A receptor; anion channel. Nature of the test: Binding affinity measured by [3H]diazepam binding assay in rat.
For test [2], the system named is Mus musculus. Nature of the test: Effective dose required for anxiolytic activity in mice when administered perorally (Antipentylene tetrazole test). The following applies: po. It is filed as functional.
For test [3], the system named is Mus musculus. Briefly: Effective dose required for anxiolytic activity in mice when administered perorally (Inclined screen test). The format is functional. Conditions: po.
Test [4] has as its system Mus musculus. Nature of the test: Effective dose required for anxiolytic activity in mice when administered perorally (Rotarod test). It is filed as functional. The following applies: po. Background: The rotarod test checks motor coordination on a turning rod.
The test system of test [5] is Felis catus. Briefly: Minimum effective dose required for drug induced ataxia (observable symptomatology) in cat when administered perorally. The format is functional. Conditions: po, read-out: MED.
Test [6] relates to Monkey. Nature of the test: Minimum effective dose required for anticonflict effect in monkey when administered perorally. The following applies: Cercopithecidae, in Primates, po; read-out: MED. It is filed as functional.
Test [7] relates to Monkey. Nature of the test: Highest dose required for depressant effect when administered perorally. It is filed as functional, Cercopithecidae.
The subject of test [8] is Mus musculus. Briefly: (§1) Effective dose required for ethanol interaction in mouse when administered perorally. The format is functional. Conditions: po.
The subject of test [9] is Rattus norvegicus. Nature of the test: Lowest dose required for depressant effect (significant decrease in unpunished responding) in rat when administered perorally. The format is functional.
Test [10] deals with Rattus norvegicus. Briefly: Minimum effective dose required for anticonflict effect in rat when administered perorally. Conditions: po, read-out: MED. The format is functional.
In test [11] the test system is Mus musculus. Nature of the test: Effective dose required for anxiolytic activity in mice when administered perorally ( Rotarod test). It is filed as functional. The following applies: po.
Test [12] relates to Felis catus. Briefly: Minimum effective dose required for drug induced ataxia (observable symptomatology) in cat when administered perorally. The format is functional. Conditions: po, read-out: MED.
The test system of test [13] is Mus musculus. The test is described as §1. Conditions: po.

The results in this text go back to ChEMBL document CHEMBL1122390, “2-benzazepines. 5. Synthesis of pyrimido[5,4-d][2]benzazepines and their evaluation as anxiolytic agents” (J Med Chem, 1983).

pIC50: −log10 of the molar value. A value given as a limit tells only on which side of the number the result lay.

Take `Cc1ncc2c(n1)-c1ccc(Cl)cc1C(c1ccccc1Cl)=[N+]([O-])C2`: the pIC50 in test [1] was 7.82. In addition, the ED50 in test [2] was 0.72 mg/kg; in test [3], greater than 400 mg/kg; in test [4] it was 6.3 mg/kg.
In the case of `Nc1ncc2c(n1)-c1ccccc1C(c1ccccc1)=NC2`, the pIC50 in test [1] is 7.22. In test [2], this compound came in with an ED50 of 17 mg/kg.
In turn, `Cc1ncc2c(n1)-c1ccc(Cl)cc1C(c1ccccc1Cl)N(C)C2` (stereo not drawn) gave a pIC50 in test [1] of 7.60. Further, the ED50 was 7.7 mg/kg in test [2], greater than 400 mg/kg in test [3] and 74 mg/kg in [4].
The like results for `Nc1ncc2c(n1)-c1ccc(Cl)cc1C(c1ccccc1Cl)=NC2` were, in that order, 8.59, 0.07 mg/kg, greater than 400 mg/kg and 1.4 mg/kg.
The like results for `Fc1ccccc1C1=NCc2cnc(Cl)nc2-c2ccc(Cl)cc21` were, in that order, 8.28, 4.7 mg/kg, greater than 400 mg/kg and 24 mg/kg.
In the same order, the values of `CC1=NCC2CNC(c3ccccc3Cl)c3cc(Cl)ccc3C2=N1` (stereo not drawn) are 6.85, 34 mg/kg, 200 mg/kg and 109 mg/kg.
In the case of `CNC(=O)Cc1ncc2c(n1)-c1ccc(Cl)cc1C(c1ccccc1F)=NC2`, in test [1], the pIC50 is 8.12. Further, the results for the ED50 in test [2], in test [3] and in test [4] were 2.3 mg/kg, greater than 400 mg/kg and 4 mg/kg, respectively.
The like results for `[O-][N+]1=C(c2ccccc2F)c2cc(Cl)ccc2-c2nc(S)ncc2C1` were, in that order, 6.31, greater than 100 mg/kg, greater than 400 mg/kg and greater than 200 mg/kg.
Compound `Cc1nc2c(c[n+]1[O-])C[N+]([O-])=C(c1ccccc1Cl)c1cc(Cl)ccc1-2` had a pIC50 in test [1] of 7.51. Besides, the ED50 in [2] is 2.7 mg/kg; in test [3], 240 mg/kg; in [4], 5.6 mg/kg.
In the same order, the values of `Cc1ncc2c(n1)-c1ccc(Cl)cc1C(c1ccccc1Cl)NC2` (stereo not drawn) are 7.52, 2.3 mg/kg, greater than 400 mg/kg and 18 mg/kg.
In the same order, the values of `[O-][N+]1=C(c2ccccc2Cl)c2cc(Cl)ccc2-c2ncncc2C1` are 7.41, 0.87 mg/kg, 141 mg/kg and 4.9 mg/kg.
In test [1], `CNc1ncc2c(n1)-c1ccc(Cl)cc1C(c1ccccc1F)=NC2` showed a pIC50 of 8.55. The ED50 in [2] was 0.58 mg/kg; in test [3] it was greater than 400 mg/kg; in test [4], 4 mg/kg.
`Cc1ncc2c(n1)-c1ccccc1C(c1ccccc1)=NC2`: the pIC50 in test [1] is 7.27. Moreover, the ED50 in [2] came to 84 mg/kg; in [4], 200 mg/kg.
Consider `Nc1ncc2c(n1)-c1ccc(Cl)cc1C(c1ccccc1F)=[N+]([O-])C2`, for which, in [1], the pIC50 was 7.42.
In test [1], `Fc1ccccc1C1=NCc2cncnc2-c2ccc(Cl)cc21` had a negative-log IC50 (pIC50) of 8.47. Moreover, the ED50 was 0.37 mg/kg in [2], greater than 400 mg/kg in test [3] and 0.8 mg/kg in [4].
In the same order, the values of `CN1CCN(c2ncc3c(n2)-c2ccc(Cl)cc2C(c2ccccc2F)=NC3)CC1` are 8.15, 1.2 mg/kg, greater than 400 mg/kg and 16 mg/kg.
In the same order, the values of `CN(C)CCCNc1ncc2c(n1)-c1ccc(Cl)cc1C(c1ccccc1F)=NC2` are 8.64, 1.6 mg/kg, 187 mg/kg and 16 mg/kg.
In the same order, the values of `CSc1ncc2c(n1)-c1ccc(Cl)cc1C(c1ccccc1Cl)=NC2` are 7.73, 13 mg/kg, greater than 400 mg/kg and 33 mg/kg.
`Clc1ccc2c(c1)C(c1ccccc1Cl)NCc1cncnc1-2` (stereo not drawn) had a pIC50 in [1] of 7.27. For the same compound, the ED50 is 6.9 mg/kg in test [2], greater than 400 mg/kg in test [3] and 22 mg/kg in [4].
In [1], `Cc1ncc2c(n1)-c1ccc(Cl)cc1C(c1ccccc1F)=NC2` gave a pIC50 of 8.51. The ED50 in [2] was 6.6 mg/kg; in test [3], greater than 400 mg/kg; in test [4], 7.8 mg/kg.
Regarding `Cc1ncc2c(n1)-c1ccc(Cl)cc1C(c1ccccc1)=NC2`, the pIC50 in test [1] is 7.77. In addition, in test [2], the 50% effect level (ED50) was put at a dose of 9.3 mg/kg.
`Clc1ccc2c(c1)C(c1ccccc1Cl)=NCc1cncnc1-2` gave a pIC50 in test [1] of 8.55. Besides, the minimal effective dose in [5] worked out at 0.5 mg/kg; in test [6], 0.04 mg/kg; in [10], 0.31 mg/kg. Moreover, in test [7], the HED turned out to be 5 mg/kg. Moreover, the ED50 amounted to 2.2 mg/kg in [8], 0.59 mg/kg in [2], 215 mg/kg in test [3] and 3.6 mg/kg in test [4]. For the same compound, in test [9], the DUR stood at 2.5 mg/kg.
`COc1ncc2c(n1)-c1ccc(Cl)cc1C(c1ccccc1F)=NC2` had a pIC50 in test [1] of 8.46. For the same compound, the values for the ED50 in [2], in test [3] and in test [4] were 2.6 mg/kg, greater than 400 mg/kg and 9 mg/kg, respectively.
The like results for `[O-][N+]1=C(c2ccccc2F)c2cc(Cl)ccc2-c2ncncc2C1` were, in that order, 7.39, 3.9 mg/kg, 277 mg/kg and 3.95 mg/kg.
The like results for `Nc1ncc2c(n1)-c1ccc(Cl)cc1C(c1ccccc1F)=NC2` were, in that order, 8.55, 1.1 mg/kg, greater than 400 mg/kg and 5.1 mg/kg.
The like results for `Oc1ncc2c(n1)-c1ccc(Cl)cc1C(c1ccccc1F)=NC2` were, in that order, 8.02, 6.3 mg/kg, greater than 400 mg/kg and 29 mg/kg.
`Sc1ncc2c(n1)-c1ccc(Cl)cc1C(c1ccccc1Cl)=NC2` gave a negative logarithm of the IC50 (pIC50) in test [1] of 6.57. Also, the ED50 is 18 mg/kg in test [2], greater than 400 mg/kg in test [3] and 214 mg/kg in [4].
Take `O=C(O)Cc1ncc2c(n1)-c1ccc(Cl)cc1C(c1ccccc1F)=NC2`: the pIC50 in test [1] was 8.02. Further, the ED50 in test [11] was 30 mg/kg; in test [2], 12 mg/kg; in test [3], greater than 400 mg/kg.
With `CC(C)c1ncc2c(n1)-c1ccc(Cl)cc1C(c1ccccc1Cl)=NC2`, in test [1], the pIC50 is 7.60. Moreover, the ED50 in [2] was 3.8 mg/kg; in [3] it was greater than 400 mg/kg; in test [4] it was 21 mg/kg.
The like results for `Nc1ncc2c(n1)-c1ccc(Cl)cc1C(c1ccccc1)=NC2` were, in that order, 7.77, 4.9 mg/kg, greater than 400 mg/kg and 19 mg/kg.
In the same order, the values of `Cc1ncc2c(n1)-c1ccc(Cl)cc1C(c1ccccc1Cl)=NC2` are 8.04, 0.74 mg/kg, greater than 400 mg/kg and 7.2 mg/kg.
As for `CCOC(=O)Cc1ncc2c(n1)-c1ccc(Cl)cc1C(c1ccccc1F)=NC2`, the pIC50 in test [1] is 7.70. Further, the values for the ED50 in [2] and in [4] were 13 mg/kg and greater than 200 mg/kg, respectively.
As to `CN(C)c1ncc2c(n1)-c1ccc(Cl)cc1C(c1ccccc1F)=NC2`, the pIC50 in test [1] is 8.09. For the same compound, the values for the ED50 in test [2], in [3] and in test [4] were 1.1 mg/kg, greater than 400 mg/kg and 2.2 mg/kg, respectively.
Turning to `CN1C(=O)CN=C(c2ccccc2)c2cc(Cl)ccc21` [DIAZEPAM], the minimal effective dose in [12] amounted to 0.2 mg/kg; in test [6] it was 0.31 mg/kg; in test [10], 1.25 mg/kg. In [7], this compound returned an HED of 20 mg/kg. The ED50 in [13] is 0.97 mg/kg; in test [2], 1.4 mg/kg; in [3], greater than 25 mg/kg; in [4] it was 3.2 mg/kg. Also, the DUR in [9] turned out to be 20 mg/kg.

As usually defined, the pIC50 is the IC50 on a negative log10 scale, so that one unit is a factor of ten. As usually defined, the ED50 is the midpoint of the dose-response relation.
